According to the CheMixHub ionic liquid set:
Values joined by “and” are separate entries in the source; they are usually repeats but may differ in a detail not shown here. Identical values can stand only once.

Experiment: xn = mol fraction of the nth substance listed

CC[N+](CC)(CC)CC.[Cl-] + NCCCO
viscosity [mPa·s], 101.3 kPa
Details | 293.15 K | 298.15 K | 303.15 K | 308.15 K | 313.15 K | 318.15 K | 323.15 K | 328.15 K | 333.15 K
x2 = 0.8 | 55.2 | 42.4 | 32.9 | 26.2 | 21.2 | 17.4 | 14.4 | 12.1 | 10.3
x2 = 0.8571 | 46.6 | 35.8 | 27.9 | 22.3 | 18 | 14.8 | 12.3 | 10.4 | 8.8
x2 = 0.8889 | 43.4 | 33.4 | 26.1 | 21 | 16.9 | 14 | 11.6 | 9.8 | 8.3

CCCC[N+](C)(CCCC)CCCC.[Cl-] + N[C@@H](Cc1ccccc1)C(=O)O + O
viscosity [mPa·s], 101.3 kPa
Details | 293.15 K | 298.15 K | 303.15 K | 308.15 K | 313.15 K
x2 = 0, x1 = 0.00144 | – | – | – | – | 0.7
x2 = 0.0003636, x1 = 0.00072 | 0.99 | 0.89 | 0.76 | 0.67 | –
x2 = 0.0003667, x1 = 0.001439 | 0.98 | 0.9 | 0.78 | 0.79 | 0.71
x2 = 0.000726, x1 = 0.0007198 | 1 | 0.9 | 0.77 | 0.68 | –
x2 = 0.0007319, x1 = 0.001438 | 0.99 | 0.91 | 0.8 | 0.8 | 0.72
x2 = 0.00109, x1 = 0.0007195 | 1.02 | 0.92 | 0.78 | 0.69 | –
x2 = 0.001099, x1 = 0.001438 | 1.01 | 0.92 | 0.81 | 0.81 | 0.74
x2 = 0.001452, x1 = 0.0007192 | 1.03 | 0.93 | 0.79 | 0.71 | –
x2 = 0.001466, x1 = 0.001437 | 1.02 | 0.94 | 0.82 | 0.83 | 0.75
x2 = 0.001813, x1 = 0.000719 | 1.04 | 0.94 | 0.81 | 0.72 | –
x2 = 0.001828, x1 = 0.001437 | 1.03 | 0.95 | 0.84 | 0.84 | 0.76
x2 = 0.002175, x1 = 0.0007187 | 1.06 | 0.96 | 0.82 | 0.73 | –
x2 = 0.002194, x1 = 0.001436 | 1.05 | 0.96 | 0.85 | 0.85 | 0.78
x2 = 0.002538, x1 = 0.0007185 | 1.07 | 0.97 | 0.83 | 0.75 | –
x2 = 0.002562, x1 = 0.001436 | 1.06 | 0.98 | 0.86 | 0.87 | 0.79

CC(=O)[O-].CC[n+]1ccn(C)c1 + O
Details | electrical conductivity [S/m] | viscosity [mPa·s]
293.1 K, 101 kPa, x2 = 0.517 | – | 59.4
293.1 K, 101 kPa, x2 = 0.578 | – | 51.1
293.1 K, 101 kPa, x2 = 0.705 | – | 32.7
293.15 K, 100 kPa, x1 = 0.7987 | 0.314 | –
293.15 K, 100 kPa, x1 = 1 | 0.223 | –
293.15 K, 100 kPa, x2 = 0.2088 | – | 138.9
293.15 K, 101.3 kPa, x2 = 0 | 0.243 | –
293.15 K, 101.3 kPa, x2 = 0.0774 | 0.327 | –
293.15 K, 101.3 kPa, x2 = 0.1429 | 0.562 | –
293.15 K, 101.3 kPa, x2 = 0.3065 | 1.016 | –
293.15 K, 101.3 kPa, x2 = 0.4381 | 1.537 | –
293.15 K, 101.3 kPa, x2 = 0.5278 | 2.03 | –
293.15 K, 101.3 kPa, x2 = 0.7257 | 4.136 | –
293.15 K, 101.3 kPa, x2 = 0.8083 | 5.417 | –
293.15 K, 101.3 kPa, x2 = 0.8554 | 6.014 | –
293.15 K, 101.3 kPa, x2 = 0.8891 | 5.902 | –
293.15 K, 101.3 kPa, x2 = 0.9279 | 2.979 | –
293.15 K, 101.3 kPa, x2 = 0.9308 | 2.707 | –
293.15 K, 101.3 kPa, x2 = 0.9425 | 1.866 | –
293.15 K, 101.3 kPa, x2 = 0.9559 | 1.121 | –
293.15 K, 101.3 kPa, x2 = 0.9625 | 0.8 | –
298.15 K, 101 kPa, x2 = 0 | – | 132.9
298.15 K, 101 kPa, x2 = 0.0992 | – | 109.7
298.15 K, 101 kPa, x2 = 0.266 | – | 85
298.15 K, 101 kPa, x2 = 0.4207 | – | 59.5
298.15 K, 101 kPa, x2 = 0.5408 | – | 44.4
298.15 K, 101 kPa, x2 = 0.6135 | – | 35.9
303.15 K, 100 kPa, x1 = 0.2003 | 2.37 | –
303.15 K, 100 kPa, x1 = 0.7987 | 0.527 | –
303.15 K, 100 kPa, x2 = 0.4 | – | 52.7
303.15 K, 101 kPa, x2 = 0.132 | – | 84
313.15 K, 100 kPa, x2 = 0.2088 | – | 47.2
313.15 K, 100 kPa, x2 = 0.4 | – | 33.9
313.15 K, 101 kPa, x2 = 0.188 | – | 46.7
313.15 K, 101 kPa, x2 = 0.5408 | – | 23.49
323.15 K, 100 kPa, x1 = 0.5984 | 1.63 | –
323.15 K, 100 kPa, x2 = 0.2088 | – | 30.12
323.15 K, 101 kPa, x2 = 0.132 | – | 33.1
328.15 K, 101 kPa, x2 = 0.0992 | – | 27
328.15 K, 101 kPa, x2 = 0.4207 | – | 17.5
328.15 K, 101 kPa, x2 = 0.6805 | – | 9.43
328.15 K, 101 kPa, x2 = 0.8134 | – | 5.3
333.1 K, 101 kPa, x2 = 0.517 | – | 12.27
333.1 K, 101 kPa, x2 = 0.578 | – | 11
333.15 K, 100 kPa, x1 = 0.9481 | 1.31 | –
333.15 K, 100 kPa, x1 = 1 | 1.31 | –
333.15 K, 101 kPa, x2 = 0.188 | – | 21.4
333.15 K, 101 kPa, x2 = 0.266 | – | 19.5
343.15 K, 100 kPa, x1 = 1 | 1.75 | –
343.15 K, 100 kPa, x2 = 0.2088 | – | 15.07
343.15 K, 100 kPa, x2 = 0.4 | – | 12.24
343.15 K, 100 kPa, x2 = 0.8023 | – | 3.8
343.15 K, 101 kPa, x2 = 0.222 | – | 14.52
343.15 K, 101 kPa, x2 = 0.5408 | – | 8.98
343.15 K, 101 kPa, x2 = 0.6805 | – | 6.22
353.15 K, 101 kPa, x2 = 0.102 | – | 12.96
353.15 K, 101 kPa, x2 = 0.132 | – | 12.58
353.15 K, 101 kPa, x2 = 0.188 | – | 11.89
353.15 K, 101 kPa, x2 = 0.355 | – | 10.11
363.15 K, 101 kPa, x2 = 0.072 | – | 10.28
363.15 K, 101 kPa, x2 = 0.102 | – | 10.09
363.15 K, 101 kPa, x2 = 0.132 | – | 9.82
373.15 K, 101 kPa, x2 = 0.188 | – | 7.48

CCCCCCCCCCCC[n+]1ccn(C)c1.[Br-] + O
298.15 K, 100 kPa, frequency 0.001 MHz
Details | electrical conductivity [S/m]
x1 = 3.604e-05 | 0.018
x1 = 7.207e-05 | 0.036
x1 = 9.009e-05 | 0.045
x1 = 0.0001081 | 0.054
x1 = 0.0001261 | 0.065
x1 = 0.0001441 | 0.072
x1 = 0.0001622 | 0.081
x1 = 0.0001802 | 0.089
x1 = 0.0002522 | 0.101
x1 = 0.0003242 | 0.111

CCCC[N+](C)(CCCC)CCCC.[Cl-] + O
viscosity
Details | 293.15 K | 298.15 K | 303.15 K | 308.15 K | 313.15 K
100 kPa, x1 = 0.0003603 | 1.01 mPa·s | 0.904 mPa·s | 0.809 mPa·s | 0.726 mPa·s | 0.661 mPa·s
100 kPa, x1 = 0.0007023 | 1.024 mPa·s | 0.914 mPa·s | 0.815 mPa·s | 0.735 mPa·s | 0.671 mPa·s
100 kPa, x1 = 0.001062 | 1.035 mPa·s | 0.93 mPa·s | 0.829 mPa·s | 0.744 mPa·s | 0.686 mPa·s
100 kPa, x1 = 0.001422 | 1.045 mPa·s | 0.941 mPa·s | 0.839 mPa·s | 0.756 mPa·s | 0.694 mPa·s
101.3 kPa, x1 = 0.0003423 | 1.011 mPa·s | 0.904 mPa·s | 0.806 mPa·s | 0.729 mPa·s | 0.662 mPa·s
101.3 kPa, x1 = 0.0007203 | 1.023 mPa·s and 0.98 mPa·s and 1.04 mPa·s | 0.914 mPa·s and 0.88 mPa·s and 0.93 mPa·s | 0.812 mPa·s and 0.74 mPa·s and 0.83 mPa·s | 0.737 mPa·s and 0.65 mPa·s and 0.75 mPa·s | 0.672 mPa·s and 0.67 mPa·s
101.3 kPa, x1 = 0.001062 | 1.036 mPa·s | 0.931 mPa·s | 0.826 mPa·s | 0.747 mPa·s | 0.686 mPa·s
101.3 kPa, x1 = 0.00144 | 1.044 mPa·s and 0.97 mPa·s and 1.08 mPa·s | 0.942 mPa·s and 0.89 mPa·s and 0.96 mPa·s | 0.84 mPa·s and 0.77 mPa·s and 0.86 mPa·s | 0.759 mPa·s and 0.77 mPa·s | 0.695 mPa·s and 0.7 mPa·s
